Measured values: patent US20090233926A1, “2-BENZIMIDAZOLYL-6-MORPHOLINO-4-PIPERIDIN-4-YLPYRIMIDINE DERIVATIVES AS PI3K AND MTOR INHIBITORS FOR THE TREATMENT OF PROLIFERATIVE DISORDERS” (AstraZeneca, priority 2006, published 2009)

Key:
[1] = target: T1, p110α Type Ia human PI3K (Homo sapiens, UniProt P42336); experiment: In vitro PI3K enzyme assay (AlphaScreen), Test (a); format: biochemical; details: read-out: IC50 versus p110α Type Ia human PI3K
T1 construct: full length DNA of each of the p110α, p110β and p110δ Type Ia human PI3K p110 isoforms; 6-His; made in house; Grp1 PH domain in E. coli
Description: The assay used AlphaScreen technology (Gray et al., Analytical Biochemistry, 2003, 313: 234-245) to determine the ability of test compounds to inhibit phosphorylation by recombinant Type I PI3K enzymes of the lipid PI(4,5)P2.
DNA fragments encoding human PI3K catalytic and regulatory subunits were isolated from cDNA libraries using standard molecular biology and PCR cloning techniques. The selected DNA fragments were used to generate baculovirus expression vectors. In particular, full length DNA of each of the p110α, p110β and p110δ Type Ia human PI3K p110 isoforms (EMBL Accession Nos. HSU79143, S67334, Y10055 for p110α, p110β and p110δ respectively) were sub-cloned into a pDEST10 vector (Invitrogen Limited, Fountain Drive, Paisley, UK). The vector is a Gateway-adapted version of Fastbac 1 containing a 6-His epitope tag. […]
Biotinylated-DiC8-PI(3,4,5)P3 (50 nM; Cell Signals Inc., Catalogue No. 107), recombinant purified GST-Grp1 PH protein (2.5 nM) and AlphaScreen Anti-GST donor and acceptor beads (100 ng; Packard Bioscience Limited, Station Road, Pangbourne, Berkshire, UK, Catalogue No. 6760603M) were added and the assay plates were left for about 5 to 20 hours at room temperature in the dark. The resultant signals arising from laser light excitation at 680 nm were read using a Packard AlphaQuest instrument. […]

[2] = test system: phosphorylation of Serine 473 in Akt; experiment: In vitro phospho-Ser473 Akt assay in MDA-MB-468 cells, Test (c); format: cell-based; details: Homo sapiens, read-out: IC50, inhibition of phosphorylation of Serine 473 in Akt
Experimental: This assay determines the ability of test compounds to inhibit phosphorylation of Serine 473 in Akt as assessed using Acumen Explorer technology (TTP LabTech Limited, Royston, Herts, SG8 6EE, UK), a plate reader that can be used to rapidly quantitate features of images generated by laser-scanning.
A MDA-MB-468 human breast adenocarcinoma cell line (LGC Promochem, Teddington, Middlesex, UK, Catalogue No. HTB-132) was routinely maintained at 37° C. with 5% CO2 up to a confluency of 70-90% in DMEM containing 10% FCS and 1% L-glutamine.
For the assay, the cells were detached from the culture flask using ‘Accutase’ (Innovative Cell Technologies Inc., San Diego, Calif., USA; Catalogue No. AT104) using standard tissue culture methods and resuspended in media to give 5.5×10^4 cells per ml. Aliquots (90 μl) were seeded into each of the inner 60 wells of a black ‘Costar’ 96-well plate (Corning Inc., NY, USA; Catalogue No. 3904) to give a density of ˜5000 cells per well. Aliquots (90 μl) of culture media were placed in the outer wells to prevent edge effects. [An alternative cell handling procedure involved the maintenance of the cells in a ‘SelecT’ robotic device (The Automation Partnership, Royston, Herts SG8 5WY, UK). Cells were resuspended in media to give 5×10^4 cells per ml. Aliquots (100 μl) were seeded into the wells of a black ‘Costar’ 96-well plate.] […]

T1 sequence (P42336 whole entry, the tested form may be a part, canonical isoform): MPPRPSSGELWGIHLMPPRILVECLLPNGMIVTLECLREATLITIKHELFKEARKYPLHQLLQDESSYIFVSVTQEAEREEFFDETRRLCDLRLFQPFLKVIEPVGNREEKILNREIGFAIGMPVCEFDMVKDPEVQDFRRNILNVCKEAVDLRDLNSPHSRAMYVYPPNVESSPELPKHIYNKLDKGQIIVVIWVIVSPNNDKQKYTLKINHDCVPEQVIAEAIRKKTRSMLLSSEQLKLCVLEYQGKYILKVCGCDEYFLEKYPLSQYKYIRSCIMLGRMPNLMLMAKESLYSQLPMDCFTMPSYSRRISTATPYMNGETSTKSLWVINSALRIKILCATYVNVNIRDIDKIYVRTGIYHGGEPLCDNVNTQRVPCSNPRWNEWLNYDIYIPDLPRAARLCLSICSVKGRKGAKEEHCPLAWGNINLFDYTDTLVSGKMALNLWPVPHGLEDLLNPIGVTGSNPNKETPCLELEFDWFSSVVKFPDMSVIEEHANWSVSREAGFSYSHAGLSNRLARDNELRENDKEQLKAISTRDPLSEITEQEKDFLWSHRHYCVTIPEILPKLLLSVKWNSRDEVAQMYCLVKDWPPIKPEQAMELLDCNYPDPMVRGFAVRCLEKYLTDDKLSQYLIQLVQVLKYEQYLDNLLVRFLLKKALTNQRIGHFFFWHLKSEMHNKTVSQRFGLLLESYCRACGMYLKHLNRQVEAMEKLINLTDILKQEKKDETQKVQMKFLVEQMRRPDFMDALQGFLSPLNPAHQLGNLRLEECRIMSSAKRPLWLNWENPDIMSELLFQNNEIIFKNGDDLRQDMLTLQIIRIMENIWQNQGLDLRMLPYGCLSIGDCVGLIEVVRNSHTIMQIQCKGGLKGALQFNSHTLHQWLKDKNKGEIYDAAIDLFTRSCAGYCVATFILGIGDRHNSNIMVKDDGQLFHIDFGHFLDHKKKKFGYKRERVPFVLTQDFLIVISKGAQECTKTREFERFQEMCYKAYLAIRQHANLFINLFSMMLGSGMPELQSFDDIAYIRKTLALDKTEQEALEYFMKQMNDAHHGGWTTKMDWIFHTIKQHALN
T1 sequence (P27986 whole entry partner, the tested form may be a part, canonical isoform): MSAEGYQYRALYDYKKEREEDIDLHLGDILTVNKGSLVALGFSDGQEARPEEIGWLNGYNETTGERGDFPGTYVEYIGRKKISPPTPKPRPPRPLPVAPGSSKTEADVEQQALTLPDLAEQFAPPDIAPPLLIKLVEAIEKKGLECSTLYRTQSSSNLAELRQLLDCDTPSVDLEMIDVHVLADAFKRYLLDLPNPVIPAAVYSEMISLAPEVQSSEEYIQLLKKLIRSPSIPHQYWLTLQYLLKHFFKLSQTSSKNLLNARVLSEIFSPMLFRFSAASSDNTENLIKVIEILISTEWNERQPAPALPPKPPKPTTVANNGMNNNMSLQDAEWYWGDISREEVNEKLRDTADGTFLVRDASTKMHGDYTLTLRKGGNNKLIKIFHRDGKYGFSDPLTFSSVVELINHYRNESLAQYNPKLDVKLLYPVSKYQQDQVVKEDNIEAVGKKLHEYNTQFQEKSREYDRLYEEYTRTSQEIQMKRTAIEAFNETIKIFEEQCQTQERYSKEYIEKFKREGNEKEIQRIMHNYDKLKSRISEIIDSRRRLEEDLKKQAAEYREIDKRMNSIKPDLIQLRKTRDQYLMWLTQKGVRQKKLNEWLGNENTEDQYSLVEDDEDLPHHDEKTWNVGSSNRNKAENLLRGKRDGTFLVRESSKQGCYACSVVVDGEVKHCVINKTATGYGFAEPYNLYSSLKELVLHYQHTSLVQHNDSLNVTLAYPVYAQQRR

| IC50 [1] [nM] | IC50 [2] [nM] | Structure (SMILES) |
| --- | --- | --- |
| ~300 | ~100 | NCC(=O)N1CCC(c2cc(N3CCOCC3)nc(-n3c(C(F)F)nc4ccccc43)n2)CC1 [Example 2, 2-(2-difluoromethylbenzimidazol-1-yl)-4-(N-glycylpiperidin-4-yl)-6-morpholinopyrimidine] |
| ~100 | ~100 | NCC(=O)N1CC=C(c2cc(N3CCOCC3)nc(-n3c(C(F)F)nc4ccccc43)n2)CC1 [Example 1, 2-(2-difluoromethylbenzimidazol-1-yl)-4-(N-glycyl-1,2,3,6-tetrahydropyridin-4-yl)-6-morpholinopyrimidine] |
